In assay [1] the target is serotonin transporter (SERT) (Rattus norvegicus, UniProt P31652). As to the kind of experiment: [3H]citalopram binding assay. To be noted: ratio of Ki values measured in this paper.
The subject of the next assay is SERT. The assay can be described thus: SERT binding, inhibition of [3H]paroxetine. The settings on record: ratio of Ki values taken from reference 21.
Another assay concerns the target NET. To be noted: read-out: NET (Ki); value taken from the literature; cited from earlier work.

Drawing on PMC3713777 (Bioorganic & medicinal chemistry, 2010), this text covers DAT/SERT, NET/SERT and Ki for seven compounds.

The structures appear in SMILES notation.

serotonin transporter (SERT), sequence (P31652 whole entry): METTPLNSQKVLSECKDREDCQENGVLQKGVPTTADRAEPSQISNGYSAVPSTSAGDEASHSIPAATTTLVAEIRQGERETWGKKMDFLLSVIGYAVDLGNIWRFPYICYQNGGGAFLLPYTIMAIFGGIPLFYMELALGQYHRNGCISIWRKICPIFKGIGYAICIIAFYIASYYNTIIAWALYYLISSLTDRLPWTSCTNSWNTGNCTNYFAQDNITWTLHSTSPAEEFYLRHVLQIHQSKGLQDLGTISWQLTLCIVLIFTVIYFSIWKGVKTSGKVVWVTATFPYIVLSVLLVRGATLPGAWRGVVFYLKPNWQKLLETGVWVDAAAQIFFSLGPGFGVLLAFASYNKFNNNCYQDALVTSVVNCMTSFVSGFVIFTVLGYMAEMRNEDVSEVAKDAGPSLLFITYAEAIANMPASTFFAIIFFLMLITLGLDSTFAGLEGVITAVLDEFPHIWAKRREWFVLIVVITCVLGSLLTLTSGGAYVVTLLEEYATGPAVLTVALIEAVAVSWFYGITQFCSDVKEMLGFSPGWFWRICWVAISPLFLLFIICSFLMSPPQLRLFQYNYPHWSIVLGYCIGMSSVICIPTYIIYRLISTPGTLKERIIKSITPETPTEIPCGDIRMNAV

As to `CCOC(=O)C1(c2ccc(I)cc2)CCNCC1.Cl` [Compound 4c, Ethyl 4-(4-iodophenyl)-piperidine-4-carboxylate], the DAT/SERT in assay [1] was 1,400.
As for `O=C(O)C(=O)O.O=C(OCc1ccc(Cl)c(Cl)c1)C1(c2ccc(I)cc2)CCNCC1` [Compound 14c, 3,4-Dichlorobenzyl 4-(4-iodophenyl) piperidine-4-carboxylate], the NET/SERT in assay [1] is recorded as 1,000.
Take `Cl.O=C(OCc1ccccc1)C1(c2ccc(Cl)c(Cl)c2)CCNCC1` [Compound 12a, Benzyl 4-(3,4-dichlorophenyl) piperidine-4-carboxylate]: the DAT/SERT in assay [1] was determined as 100.
For `CCOC(=O)C1(c2ccc(Cl)c(Cl)c2)CCN(C)CC1.Cl` [Compound 2a], the NET/SERT with SERT is given as 4,000. For the same compound, the Ki on NET is 74.5 µM.
As for `CCOC(=O)C1(c2ccc3ccccc3c2)CCN(C)CC1.Cl` [Compound 2d], the NET/SERT with SERT is listed as 9,900.
In the case of `CCOC(=O)C1(c2ccc(I)cc2)CCN(C)CC1.Cl` [Compound 2c], in the assay with SERT, the NET/SERT was 25,000.
As for `CN1CCC(C(=O)OCc2ccc(Cl)c(Cl)c2)(c2ccc(Cl)c(Cl)c2)CC1.Cl` [Compound 8d, 3,4-Dichlorobenzyl 4-(3,4-dichlorophenyl)-1-methylpiperidine-4-carboxylate], the DAT/SERT in assay [1] is reported as 1,200.
